The results in this text go back to US6171786A, “Methods for preventing multidrug resistance in cancer cells” (priority 1996, dated 2001).

“Also recorded” adds a separate entry of the source.

One data set deals with MRP expression. Nature of the data set: Inhibition of MRP mRNA expression in H-9 cells (cDNA-PCR). In kind it is cell-based, human. More on the design: Inhibition of MRP expression: key to the marks not given beside the values. How it is done:
Cells were plated in 6-well Falcon tissue culture plates at 3,300 cells per well, and incubated in the appropriate concentrations of drugs. Each of the protein kinase inhibitors to be tested were added at their appropriate final concentrations, and the cells then incubated for 10 hours at 37° C. under an atmosphere of 5% CO2.
PCR was performed using the following primers: […]
(where β2 M represents β2 microglobulin). PCR was performed for β2 M experiments under a regime consisting of 1 cycle comprising denaturation at 94° C. for 3 minutes, primer annealing at 60° C. for 30 seconds, and primer extension at 72° C. for 1 minute, followed by 19 cycles comprising denaturation at 94° C. for 30 seconds, primer annealing at 60° C. for 30 seconds, and primer extension at 72° C. for 1 minute, followed by a final cycle comprising denaturation at 94° C. for 30 seconds, primer annealing at 60° C. for 30 seconds, and primer extension at 72° C. for 5 minutes.
H-9 cells were used to analyze the effect of various protein kinase inhibitors on the expression of the multidrug resistance associated protein MRP (Grant et al., ibid.).

Data set [1] has as its system MDR1 expression. Nature of the data set: Inhibition of cytotoxic drug-induced MDR1 expression by protein kinase inhibitors (cDNA-PCR). How it is done: (§1) Cells were plated in 6-well Falcon tissue culture plates at 3,300 cells per well, and incubated in the appropriate concentrations of drugs. Each of the protein kinase inhibitors to be tested were added at the appropriate final concentration 45 minutes prior to MDR1 induction by the addition of Ara-C or TPA, with the exception of herbimycin A, which was added 12 hours prior to Ara-C or TPA, and tyrphostins A25 and B46, which were each added 16 hours prior to MDR1 induction by the addition of Ara-C or TPA. Cells were incubated overnight (TPA) or for 10 hours (Ara-C) at 37° C./ 5% CO2 after the addition of the MDR1 inducing agents before harvesting for cDNA-PCR analysis.
In addition, the analysis of certain drugs imposed added requirements. For experiments using calphostin C, cells were incubated under direct white light illumination. For experiments using D,L-threo-sphingosine, the cell culture medium was pre-treated with the appropriate concentration of the drug for one hour at 37° C. with continuous gentle mixing. After this pretreatment, cells were resuspended in media supplemented with drug and incubated for 45 minutes as described above.
To further evaluate the capacity of protein kinase inhibitors to suppress MDR1 induction by cytotoxic drugs and PKC agonists, H-9 human T-cell leukemia cells were used in cDNA-PCR assays to examine induced MDR1 mRNA expression levels in the presence of protein kinase inhibitors.

Data set [2] relates to MDR1 expression. Nature of the data set: Inhibition of cytotoxic drug-induced MDR1 expression by inhibitors of NF-κB activation. In kind it is cell-based, human. The settings on record: H9.
Data set [3] deals with MDR1 expression. As to the kind of experiment: Inhibition of cytotoxic drug-induced MDR1 expression by cytoplasmic calcium antagonists and calmodulin inhibitors. In kind it is cell-based, human. The settings on record: H9, 10 μM calmidazolium chloride, 25 μM AraC. As for the experimental part: H9 cells were incubated as described above in the presence of the following cytotoxic drugs: Ara C (at a concentration of 25 μM), Adriamycin (2 μM), bleomycin (100 μg/ml), 2-deoxyglucose (10 mM) and nocodazole (2.5 μM). In parallel, cultures of H9 cells were incubated in the presence of each of these cytotoxic drugs and of a highly specific chelator of intracellular calcium ion, 1, 2-bis(o-aminophenoxy)-ethane-N,N,N',N'-tetraacetic acid, tetra(acetoxymethyl)-ester (BAPTA/AM) at a concentration of 5 μM for 10 hrs. under the conditions described above. The inhibitor was added 45 min. prior to the addition of each of the MDR1 inducing agents. cDNA-PCR analysis, including gel electrophoresis and autoradiography as described above, was performed for each culture after drug treatment in the presence or absence of this chelator.
H9 cells were incubated as above with 25 μM AraC in the presence or absence of 10 μM calmidazolium chloride, and cDNA-PCR analysis as described above was performed.

Data set [4] relates to MDR1 expression. Nature of the data set: Inhibition of AraC-induced MDR1 expression by phospholipase C inhibitors (RT-PCR). In kind it is cell-based, human. The following applies: U73122 1 and 10 μM; H9, 25 μM AraC. How it is done: The inhibitor was added 45 min. prior to the addition of Ara C. Negative control cultures were incubated as above without the addition of either AraC or U73122.
The specificity of phospholipase C-targeted inhibition of MDR1 induction by cytotoxic drugs was determined in a comparative experiment using a known inhibitor of […] phospholipase C (PC-PLC).

For data set [5], the system named is MDR1 expression. Nature of the data set: Inhibition of TPA- or DOG-induced MDR1 expression. In kind it is cell-based, human. The following applies: H-9 cells; 32 μM erbstatin analog. How it is done:
PBL were treated with 1 ng/mL TPA; H9 and K562 cells with 10 ng/mL TPA; KG1a and KG1 cells with 100 ng/mL TPA and the other cell lines with 10 ng/mL TPA.
as §1

Data set [6] relates to MDR1 expression. As to the kind of experiment: Induction of MDR1 expression by agents that increase intracellular Ca2+. The settings on record: H9 cells; 10 μM, 10 hrs. In kind it is cell-based, human. How it is done: H9 cells were seeded into each well of 6-well plates (10^5 cells/well in 3 mL of RPMI-1640 medium/10% fetal bovine serum/2 mM L-glutamine/100 U/mL penicillin and 100 μg/mL streptomycin). Experimental cultures were treated with either the calcium-specific ionophore A23187 or an inhibitor of Ca^2+ -dependent ATPase, thapsigargin. Cells were incubated with 10 μM A23187 or 10 μg/mL thapsigargin for 10 hrs at 37° C., 5% CO2 in a humidified atmosphere. Negative control cultures were incubated as above without the addition of either A23187 or thapsigargin.
After each incubation was complete, steady-state levels of MDR1- and β2 -microglobulin mRNA (internal standard) were determined by RT-PCR as described above in Example 4. PCR products were then analyzed in 7.5% polyacrylamide gel electrophoresis and autoradiographed. […] The absence of the MDR1-specific band and presence of the β2 -microglobulin specific band was consistent with the results on uninduced H9 cells shown above in Examples 4 and 5 and FIGS. 7A through 7F.

The subject of data set [7] is MDR1 expression (P-glycoprotein). Nature of the data set: Induction of MDR1 expression by cytotoxic drugs (dye efflux, UIC2, cDNA-PCR). The settings on record: for maintenance of MDR1 expression after removal of drug: K562 subpopulation. In kind it is cell-based, human. How it is done:
(Commercially-available kits (for example, from GIBCO/BRL, Gaithersburg, Md.) can be advantageously modified for making cDNA using random hexamers.) PCR is then performed using the following primers: […]
(where β2 M represents β2 microglobulin). PCR was performed for β2 M experiments under a regime consisting of 1 cycle comprising denaturation at 94° C. for 3 minutes, primer annealing at 60° C. for 30 seconds, and primer extension at 72° C. for 1 minute, followed by 19 cycles comprising denaturation at 94° C. for 30 seconds, primer annealing at 60° C. for 30 seconds, and primer extension at 72° C. for 1 minute, followed by a final cycle comprising denaturation at 94° C. for 30 seconds, primer annealing at 60° C. for 30 seconds, and primer extension at 72° C. for 5 minutes. MDR1 cDNA sequences were amplified using the identical protocol as for β2 M, but extending the amplification from 19 cycles to 25 cycles. In addition, the cDNA-PCR amplification protocol contained the following modifications: (i) Taq DNA polymerase was added to the PCR mixtures after initial heating of the samples to 94° C. (ii) The yield of the β2 -microglobulin-specific band, obtained after 22-28 cycles of PCR, was used as the primary criterion for equalizing the starting amounts of the cDNA templates in different preparations, in order to account for differential RNA degradation in cells subjected to different types of treatment. ^32 P-labeled PCR products were detected by autoradiography.
In particular PKC is activated by treatment with Ara-C. Therefore, experiments were performed to test whether Ara-C, which is not transported by P-glycoprotein, would have any effect on P-glycoprotein function in K562 leukemia cells.
Also assayed was whether drug-induced MDR1 expression was maintained after cytotoxic drug treatment. […] At different times, MDR1 expression in the surviving cells was analyzed by dye efflux and immunofluorescence labeling with UIC2 (FIG. 3C) or by cDNA-PCR (FIG. 4E).

Regarding `COc1ccc2c(c[n+](C)c3c4cc5c(cc4ccc23)OCO5)c1OC` [chelerythrine], the “MRP expression” value in the data set with MRP expression (1-5 μM) is recorded as “capable of inhibiting MRP expression; also recorded: strongly inhibited”. Besides, the “inhibition of MDR1 induction by cytotoxic drugs” value with MDR1 expression [1] is given as “capable of inhibiting MDR1 induction by cytotoxic drugs”. Moreover, in the data set on MDR1 expression [1] (5 μM chelerythrine), the “prevention of MDR1 induction by chemotherapeutic drugs” value is “prevent MDR1 induction by chemotherapeutic drugs”. In addition, the “inhibition of Ara-C induced MDR1 expression” value in the data set with MDR1 expression [1] (chelerythrine 1 μM and 5 μM, H-9) is recorded as “Progressive dose-dependent inhibition”.
Consider `CC(=O)Oc1ccccc1C(=O)O` [aspirin, acetylsalicylic acid], for which, in the data set with MDR1 expression [2] (inhibitor 10 mM), the “inhibition of MDR1 induction by Adriamycin (2 μM)” value (from here on “inhibition … (2 μM)”) is given as “completely abrogate induction of MDR1 gene expression” and the “inhibition of MDR1 induction by Ara C (25 μM)” value (“inhibition … (25 μM)” for short) is “completely abrogate induction of MDR1 gene expression; also recorded: complete suppression of AraC-induced MDR1 expression”.
For `Clc1ccc(C(c2ccc(Cl)cc2)n2cc[n+](CC(OCc3ccc(Cl)cc3Cl)c3ccc(Cl)cc3Cl)c2)cc1` (stereo not drawn) [calmidazolium chloride], the “inhibition of AraC-induced MDR1 gene expression” value was “inhibit AraC-induced MDR1 gene expression” in the data set with MDR1 expression [3] and “efficiently abrogate AraC induction of MDR1 expression” in the data set on MDR1 expression [3] (listed as Calmidazolium chloride).
With `O=C([O-])c1ccccc1O.[Na+]` [sodium salicylate], in the data set on MDR1 expression [2] (inhibitor 20 mM), the “inhibition … (2 μM)” value is “completely abrogate induction of MDR1 gene expression” and the “inhibition … (25 μM)” value is on record as “completely abrogate induction of MDR1 gene expression; also recorded: complete suppression of AraC-induced MDR1 expression”.
As for `COc1ccc2c(c1)CC[C@@H]1[C@@H]2CC[C@]2(C)[C@@H](NCCCCCCN3C(=O)C=CC3=O)CC[C@@H]12` [U73122, 1-(6-((1β-3-methoxyestra-1,3,5(10)-trien-17-yl)amino)hexyl)-1-H-pyrrole-2,5-dione], the “inhibition of AraC-induced MDR1 mRNA” value in the data set on MDR1 expression [4] is “inhibited the induction of MDR1 mRNA; also recorded: reduced the steady-state levels of MDR1 mRNA”.
Consider `Cc1ccc(S(=O)(=O)N[C@@H](Cc2ccccc2)C(=O)CCl)cc1` [N-tosyl-L-phenylalanine chloromethyl ketone], for which, in the data set on MDR1 expression [2] (inhibitor 25 μM), the “inhibition … (2 μM)” value is given as “completely abrogate induction of MDR1 gene expression” and the “inhibition … (25 μM)” value is on record as “completely abrogate induction of MDR1 gene expression; also recorded: complete suppression of AraC-induced MDR1 expression”.
Take `COC(=O)C=Cc1cc(O)ccc1O` [methyl-2,5-dihydroxycinnamate]: the “MRP expression” value in the data set with MRP expression (32 μM) is on record as “capable of inhibiting MRP expression; also recorded: strongly inhibited”. In the data set on MDR1 expression [1] (32 μM erbstatin analog, H-9 cells), the “inhibition of Ara-C induced MDR1 expression” value is on record as “completely inhibit Ara-C induced MDR1 expression”. For the same compound, the “inhibition of TPA-induced MDR1 expression” value with MDR1 expression [5] is “completely inhibited TPA-induced MDR1 expression; also recorded: inhibit MDR1 expression induced by treatment of sensitive cells with TPA”.
With `CNc1ccc2oc(C[C@H]3O[C@@]4(CC[C@H]3C)O[C@H]([C@H](C)C(=O)c3ccc[nH]3)[C@H](C)C[C@H]4C)nc2c1C(=O)O` [A23187], the “MDR1 expression (RT-PCR)” value in the data set with MDR1 expression [6] is “capable of inducing MDR1 gene expression; also recorded: a clear MDR1-specific band was detected”.
Take `Nc1ccn([C@@H]2O[C@H](CO)[C@@H](O)[C@@H]2O)c(=O)n1` [Ara-C, 1-β-D-arabinofuranosylcytosine]: the MRP expression entry with MRP expression (25 μM Ara-C, data not shown) was “slight decrease in MRP expression”. Further, the “MDR1 mRNA expression” value in data set [7] (EJ bladder carcinoma, 10 μM Ara-C) was “activated MDR1 mRNA expression”; in data set [7] (H9 T-cell leukemia) it was “a clear MDR1-specific band was detected”; in data set [7] (K562, cDNA-PCR), “dose-dependent increase in MDR1 mRNA expression”; in data set [7] (KB-3-1 epidermoid carcinoma), “activated MDR1 mRNA expression”. In addition, in data set [7] (K562, Ara-C 12-72 hours), the “subpopulation of cells that effluxed Rh123” value is given as 3-17%. The results for the “maintenance of MDR1 expression after removal of drug” value in data set [7] (drug-free medium) and in data set [7] (treated 3-5 days then drug-free) were “up to 11 weeks” and “maintained for a least several weeks”, respectively. In addition, in data set [7] (KG1 leukemia cells, 10 μM Ara-C), the P-glycoprotein expression result was “increased P-glycoprotein expression”. Moreover, the MDR1 induction result in data set [7] (human leukemia and solid-tumor derived cell lines, short-term exposure) is “MDR1 induction, both at the mRNA and at the protein levels, was observed”.
Regarding `S=C(S)N1CCCC1` [pyrrolidone dithiocarbamate], in the data set with MDR1 expression [2] (inhibitor 20 μM), the “inhibition … (25 μM)” value is listed as “complete suppression of AraC-induced MDR1 expression”. Further, in the data set on MDR1 expression [2] (inhibitor 100 μM), the “inhibition … (2 μM)” value is given as “completely abrogate induction of MDR1 gene expression” and the “inhibition … (25 μM)” value is recorded as “completely abrogate induction of MDR1 gene expression”.
neomycin sulfate: the “MRP expression” value in the data set on MRP expression (10 mM) is reported as “capable of inhibiting MRP expression; also recorded: strongly inhibited”. Moreover, the “Inhibition of MRP expression” value with MRP expression (10 mM, 10 h) was “++++”. Besides, the “inhibition of Ara-C induced MDR1 expression” value in the data set with MDR1 expression [1] (10 mM neomycin sulfate) was “inhibit Ara-C induced MDR1 expression; also recorded: completely prevent cytotoxic drug and PKC agonist induction of MDR1 expression”.
